Laboratory results taken from patent US4526890A, “3,6,7,8-Substituted-s-triazolo[4,3-b]pyridazines as bronchodilators” (The Dow Chemical Company, priority 1981, dated 1985).
Where a name gives a salt, the structure may show the parent alone.

Legend:
[1] = Audiogenic convulsive side effects (sound challenge: tonic convulsions and fatalities); settings: mouse, ip
Description: (§1) The interaction of sound with the convulsive threshold of drugs is a known phenomenon which can be used to evaluate such side effects. […] In a procedure for pharmacological evaluation, the lowering of the convulsive threshold, or the lowering of the LD50, by sound can be studied in mice.
(§2) In the test operations, mice are administered a test compound by intraperitoneal injection at various dosages, and the number of mice showing tonic convulsions and the number of fatalities occurring within 30 minutes is recorded.
The sound exposure is carried out by placing the mice in a sound insulated cage with a bell which emits 120 decibels of sound, and activating the bell for two minutes. The number of tonic convulsions and fatalities are then recorded to determine the ED50 and LD50 in the presence of the sound challenge.

[2] = system: histamine-induced bronchoconstriction; assay: Bronchodilator activity in the Konzett-Rossler guinea pig preparation (histamine-induced bronchoconstriction); type: in vivo; set-up: key to Histamine Blockade: % blockade = 100 − (post-dose response / mean of 3 prior) × 100; settings: for percent blockade of histamine / percent of aminophylline activity: 3 mg/kg intravenously; for percent blockade of histamine: 2 minutes prior to histamine; for Histamine Blockade: table 7, intravenous, 3 mg/kg except as otherwise indicated, aminophylline 10 mg/kg; for percent of aminophylline activity: aminophylline 10 mg/kg for comparison, histamine agonist
Description: Bronchodilator activity of representative triazolopyridazine compounds of the invention is examined in the Konzett-Rossler quinea pig preparation according to accepted procedures. See Knozett and Rossler; Arch. f. Exp. Path. u. Pharmakol. […] Int. Pharmacodyn. […] In this procedure an anesthetized guinea pig is artificially respired with a fixed volume of air. The volume of air is selected to slightly exceed the capacity of the guinea pig's lungs, and the excess air or "overflow" is measured. Test compounds are evaluated by administering a test compound intravenously 2 minutes prior to administration of an agonist compound (histamine, serotonin or acetylcholine) following 3 previous agonist doses resulting in relatively uniform (±10 percent) bronchoconstriction. […] This is calculated by dividing the "overflow" agonist response measured after administration of the test compound by the average of the 3 preceding agonist responses, multiplying by 100 and subtracting this value from 100 percent.

[3] = 30 minute LD50 (acute toxicity without sound); settings: mouse, in vivo, ip
Description: as §1, §2

histamine aerosol = assay: Histamine aerosol exposure (collapse time); type: in vivo, guinea pigs; settings: challenged two hours after intraperitoneal injection, collapse time > mean + two SD of controls; for ED50: Cavia porcellus, ip, 2 h
Description: In another procedure, test compounds were administered to guinea pigs by intraperitoneal injection and the guinea pigs were challenged two hours later by exposure to a histamine aerosol. Untreated animals collapse when exposed to the histamine aerosol. […] The ED50 's of representative compounds are set out in the following table.

mice = settings: U.S. Pat. No. 4,136,182; in words; cited from earlier work

Compound: Cc1cc2nnc(C)n2nc1N1CCCCC1 [3,7-dimethyl-6-piperidino-s-triazolo[4,3-b]pyridazine]
- LD50 ([1]; in vivo): 327 mg/kg
- TD50 [1]: 260 mg/kg
- percent blockade of histamine [2]: 48%
- Histamine Blockade [2]: 48
- LD50 at 0.5 h [3]: 327 mg/kg

Compound: Cc1nnc2c3c(c(N4CCOCC4)nn12)CCCC3 [6-Morpholino-3-methyl-7,8-tetramethylene-s-triazolo[4,3-b]pyridazine]
- LD50 ([1]; in vivo): 126 mg/kg
- selectivity ratio ([1]; in vivo): ~1.18
- TD50 [1]: 90 mg/kg
- Histamine Blockade [2]: 61
- LD50 at 0.5 h [3]: 149 mg/kg

Compound: c1nnc2c3c(c(N4CCOCC4)nn12)CCCC3 [6-Morpholino-7,8-tetramethylene-s-triazolo[4,3-b]pyridazine]
- selectivity ratio ([1]; in vivo): 3.8
- percent blockade of histamine [2]: 75%
- percent of aminophylline activity [2]: 113%

Compound: Cc1nnc2c3c(c(N4CCCCC4)nn12)CCCC3 [6-Piperidino-3-methyl-7,8-tetramethylene-s-triazolo[4,3-b]pyridazine]
- LD50 ([1]; in vivo): 139 mg/kg
- TD50 [1]: 125 mg/kg
- Histamine Blockade [2]: 38
- LD50 at 0.5 h [3]: 139 mg/kg

Compound: Cc1c(N2CCCC2)nn2cnnc2c1C [7,8-Dimethyl-6-pyrrolidino-s-triazolo[4,3-b]pyridazine]
- LD50 ([1]; in vivo): 277 mg/kg
- TD50 ([1]; in vivo): 277 mg/kg
- percent blockade of histamine [2]: 65%
- percent of aminophylline activity [2]: 67%
- Histamine Blockade [2]: 62
- LD50 at 0.5 h [3]: 277 mg/kg

Compound: Cc1cc2nncn2nc1N1CCOCC1 [7-Methyl-6-morpholino-s-triazolo[4,3-b]pyridazine]
- LD50 ([1]; in vivo): 280 mg/kg
- TD50 [1]: 45 mg/kg
- bronchodilator activity ([2]; in words): desirable bronchodilator activity
- LD50 at 0.5 h [3]: 327 mg/kg

Compound: Cc1nnc2c3c(c(N4CCCN(C)CC4)nn12)CCCC3 [44 (dihydrochloride)]
- ED50 (histamine aerosol): 23.8 mg/kg

Compound: Cn1c(=O)c2[nH]cnc2n(C)c1=O [Aminophylline, reference compound]
- inhibition in vivo at 10 mg/kg ([2]; Cavia porcellus, iv, read-out: Histamine Blockade): 37%

Compound: Cc1cc2nncn2nc1N1CCCC1 [Example 3, 7-methyl-6-pyrrolidino-s-triazolo[4,3-b]pyridazine]
- LD50 ([1]; in vivo): 176 mg/kg
- TD50 [1]: 141 mg/kg
- Histamine Blockade [2]: 43
- LD50 at 0.5 h [3]: 272 mg/kg

Compound: Cc1cc2nncn2nc1N1CCN(C)CC1 [Example 4, 7-Methyl-6-N-methylpiperazino-s-triazolo[4,3-b]pyridazine]
- LD50 ([1]; in vivo): 140 mg/kg
- TD50 ([1]; in vivo): 116 mg/kg
- percent blockade of histamine [2]: 39%
- Histamine Blockade [2]: 39
- LD50 at 0.5 h [3]: 272 mg/kg

Compound: CN1CCN(c2nn3cnnc3c3c2C2CCC3C2)CC1 (stereo not shown) [Example 5, 7,8,9,10-tetrahydro-6-[4-methyl-1-piperazinyl)-7,10-methano(1,2,4)triazolo[3,4-a]phthalazine]
- LD50 ([1]; in vivo): 147 mg/kg
- TD50 [1]: 147 mg/kg
- Histamine Blockade [2]: 92
- LD50 at 0.5 h [3]: 175 mg/kg

Compound: Cc1nnc2c3c(c(N4CCOCC4)nn12)C1CCC3C1 (stereo not shown) [Example 6, 7,8,9,10-tetrahydro-3-methyl-6-(4-morpholinyl)-7,10-methano(1,2,4)triazolo[3,4-a]phthalazine]
- LD50 ([1]; in vivo): 74 mg/kg
- TD50 [1]: 61 mg/kg
- Histamine Blockade [2]: 76
- LD50 at 0.5 h [3]: 86 mg/kg

Compound: c1nnc2c3c(c(N4CCCC4)nn12)C1CCC3C1 (stereo not shown) [Example 7]
- LD50 ([1]; in vivo): 100 mg/kg
- TD50 [1]: 93 mg/kg
- Histamine Blockade [2]: 87
- LD50 at 0.5 h [3]: 136 mg/kg

Compound: c1nnc2c3c(c(N4CCCCC4)nn12)C1CCC3C1 (stereo not shown) [Example 8]
- LD50 ([1]; in vivo): 98 mg/kg
- TD50 [1]: 90 mg/kg
- Histamine Blockade [2]: 84
- LD50 at 0.5 h [3]: 108 mg/kg

Compound: Cc1nnc2c3c(c(N4CCCC4)nn12)C1CCC3C1 (stereo not shown) [Example 10]
- LD50 ([1]; in vivo): 85 mg/kg
- TD50 [1]: 85 mg/kg
- Histamine Blockade [2]: 95
- LD50 at 0.5 h [3]: 85 mg/kg

Compound: Cc1nnc2c3c(c(N4CCN(C)CC4)nn12)C1CCC3C1 (stereo not shown) [Example 13]
- LD50 ([1]; in vivo): 147 mg/kg
- TD50 ([1]; in vivo): 147 mg/kg
- Histamine Blockade [2]: 97
- LD50 at 0.5 h [3]: 147 mg/kg

Compound: c1nnc2c3c(c(N4CCCC4)nn12)C1CCC3CC1 [Example 15]
- LD50 ([1]; in vivo): 117 mg/kg
- TD50 [1]: 117 mg/kg
- Histamine Blockade [2]: 66
- LD50 at 0.5 h [3]: 136 mg/kg

Compound: c1nnc2c3c(c(N4CCOCC4)nn12)C1CCC3CC1 [Example 17]
- LD50 ([1]; in vivo): 85 mg/kg
- TD50 [1]: 62 mg/kg
- Histamine Blockade [2]: 58
- LD50 at 0.5 h [3]: 118 mg/kg

Compound: Cc1nnc2c3c(c(N4CCCC4)nn12)C1CCC3CC1 [Example 18]
- LD50 ([1]; in vivo): 141 mg/kg
- TD50 ([1]; in vivo): 141 mg/kg
- Histamine Blockade [2]: 55
- LD50 at 0.5 h [3]: 141 mg/kg

Compound: CN1CCN(c2nn3cnnc3c3c2C2CCC3CC2)CC1 [Example 21]
- LD50 ([1]; in vivo): 147 mg/kg
- TD50 [1]: 113 mg/kg
- Histamine Blockade [2]: 82
- LD50 at 0.5 h [3]: 147 mg/kg

Compound: Cc1nnc2c3c(c(N4CCN(C)CC4)nn12)C1CCC3CC1 [Example 23]
- LD50 ([1]; in vivo): 147 mg/kg
- TD50 ([1]; in vivo): 147 mg/kg
- Histamine Blockade [2]: 90
- LD50 at 0.5 h [3]: 147 mg/kg

Compound: c1nnc2c3c(c(N4CCCC4)nn12)CCCC3 [Example 24, 6-(1-pyrrolidinyl)-7,8,9,10-tetrahydro(1,2,4)triazolo[3,4-a]phthalazine]
- LD50 ([1]; in vivo): 170 mg/kg
- TD50 [1]: 150 mg/kg
- percent blockade of histamine [2]: 100%
- percent of aminophylline activity [2]: 105%
- Histamine Blockade [2]: 86
- LD50 at 0.5 h [3]: 191 mg/kg

Compound: c1nnc2c3c(c(N4CCCCC4)nn12)CCCC3 [Example 25, 6-piperidino-7,8-tetramethylene-s-triazolo[4,3-b]pyridazine]
- LD50 ([1]; in vivo): 298 mg/kg
- TD50 [1]: 283 mg/kg
- Histamine Blockade [2]: 72
- LD50 at 0.5 h [3]: 298 mg/kg

Compound: CN1CCN(c2nn3cnnc3c3c2CCCC3)CC1 [Example 27, 6-(4-methyl-1-piperazinyl)-7,8-tetramethylene(1,2,4)triazolo[4,3-b]pyridazine]
- LD50 ([1]; in vivo): 134 mg/kg
- TD50 [1]: 134 mg/kg
- Histamine Blockade [2]: 91
- LD50 at 0.5 h [3]: 147 mg/kg

Compound: c1nnc2c3c(c(N4CCCCCC4)nn12)CCCC3 [Example 29, 6-(hexahydro-1H-azepin-1-yl)-7,8-tetramethylene(1,2,4)triazolo[4,3-b]pyridazine]
- ED50 (histamine aerosol): 5 mg/kg

Compound: CC1CCCN1c1nn2cnnc2c2c1CCCC2 (stereo not shown) [Example 30, 6-(2-methylpyrrolidinyl)-7,8-tetramethylene(1,2,4)triazolo[4,3-b]pyridazine]
- ED50 (histamine aerosol): 1.6 mg/kg

Compound: CNc1nn2cnnc2c2c1CCCC2 [Example 31]
- ED50 (histamine aerosol): 4 mg/kg

Compound: CN(C)c1nn2cnnc2c2c1CCCC2 [Example 32]
- ED50 (histamine aerosol): 2.5 mg/kg

Compound: CC1CCCN(c2nn3cnnc3c3c2CCCC3)C1 (stereo not shown) [Example 33]
- ED50 (histamine aerosol): 1.8 mg/kg

Compound: CC1CCN(c2nn3cnnc3c3c2CCCC3)CC1 [Example 34]
- ED50 (histamine aerosol): 1.3 mg/kg

Compound: CNc1nn2c(C)nnc2c2c1CCCC2 [Example 38]
- ED50 (histamine aerosol): 2.1 mg/kg

Compound: Cc1nnc2c3c(c(N(C)C)nn12)CCCC3 [Example 39]
- ED50 (histamine aerosol): 2.2 mg/kg

Compound: CCc1nnc2c3c(c(N4CCCN(C)CC4)nn12)CCCC3 [Example 45]
- ED50 (histamine aerosol): 5 mg/kg

Compound: CCc1nnc2c3c(c(N4CCCN(C)CC4)nn12)CCCC3 [Example 46]
- ED50 (histamine aerosol exposure) (histamine aerosol; 120 min): < 5 mg/kg i.p.

Compound: CCc1nnc2c3c(c(N4CCCCCC4)nn12)CCCC3 [Example 47]
- ED50 (histamine aerosol): ~4.95 mg/kg

Compound: CCc1nnc2c3c(c(N4CCCC4)nn12)CCCC3 [Example 51]
- ED50 (histamine aerosol): < 2.5 mg/kg

Compound: CCc1nnc2c3c(c(N4CCN(C)CC4)nn12)CCCC3 [Example 53]
- ED50 (histamine aerosol): 36.4 mg/kg

Compound: CC(C)c1nnc2c3c(c(N4CCCC4C)nn12)CCCC3 (stereo not shown) [Example 55]
- ED50 (histamine aerosol): ~7.9 mg/kg

Compound: CC(C)c1nnc2c3c(c(N4CCCC4)nn12)CCCC3 [Example 56]
- ED50 (histamine aerosol): ~5.1 mg/kg

Compound: Cc1c(N2CCCCC2)nn2c(C)nnc2c1C [R7 Methyl; R3 CH3; R8 CH3; R6 Piperidino, 6-Piperidino-3,7,8-trimethyl-s-triazolo[4,3-b]pyridazine]
- LD50 ([1]; in vivo): 141 mg/kg
- TD50 ([1]; in vivo): 141 mg/kg
- Histamine Blockade [2]: 30
- LD50 at 0.5 h [3]: 141 mg/kg

Compound: Cc1c(N2CCOCC2)nn2cnnc2c1C [R7 Methyl; R3 H; R8 CH3; R6 Morpholino, 6-Morpholino-7,8-dimethyl-s-triazolo[4,3-b]pyridazine]
- LD50 ([1]; in vivo): 272 mg/kg
- TD50 ([1]; in vivo): 272 mg/kg
- Histamine Blockade [2]: 46
- LD50 at 0.5 h [3]: 272 mg/kg

Compound: Cc1c(N2CCCCC2)nn2cnnc2c1C [R7 Methyl; R3 H; R8 CH3; R6 Piperidino, 6-Piperidino-7,8-dimethyl-s-triazolo[4,3-b]pyridazine]
- LD50 ([1]; in vivo): 404 mg/kg
- TD50 ([1]; in vivo): 404 mg/kg
- Histamine Blockade [2]: 45
- LD50 at 0.5 h [3]: 404 mg/kg

Compound: O=C1C[C@@H]2OCC=C3CN4CC[C@]56c7ccccc7N1[C@H]5[C@H]2[C@H]3C[C@H]46 [strychnine]
- change in toxicity with sound (mice): no significant change in toxicity with sound
